Test results as given in patent US9993494B2, “Compositions and methods for treating fibrotic disease” (eFFECTOR Therapeutics, Inc., priority 2014, dated 2018).

Tested on: normal human lung fibroblasts
Assay: Ribosomal profiling: translational efficiency in TGFβ-treated fibroblasts
Format: cell-based
Settings: TGFβ-treated fibroblasts
Method in brief: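 Genome-wide RPF and total RNA libraries (ARTseq, RNA-Seq) were made from lysates of cycloheximide-treated, PBS-washed cells. After trimming and human-genome mapping, per-gene coding-region counts were compared between RPF and RNA for translational efficiency. Genes scoring low in either fraction were dropped.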

Measured: effect in renormalizing the translational profile of the gene

CC(C=CC(=O)NO)=CC(C)C(=O)c1ccc(N(C)C)cc1 (stereo not drawn) [TSA, 7-[4-(dimethylamino)phenyl]-N-hydroxy-4,6-dimethyl-7-oxohepta-2,4-dienamide]
+ (+ = 0.9 to 1.5): gene SHC3 (ENSG00000148082) | gene SLC40A1 (ENSG00000138449) | gene SOX5 (ENSG00000134532) | gene STAMBPL1 (ENSG00000138134) | gene TAF1D (ENSG00000166012) | gene TMTC1 (ENSG00000133687)
++ (++ = 1.5 to 2.0): gene SLC15A3 (ENSG00000110446)
− (− = <0.9): gene RPS6 (ENSG00000137154) | gene RPS6KA5 (ENSG00000100784) | gene RPS7 (ENSG00000171863) | gene RPS8 (ENSG00000142937) | gene RPS9 (ENSG00000170889) | gene RPS10 (ENSG00000124614) | gene RPS11 (ENSG00000142534) | gene RPS12 (ENSG00000112306) | gene RPS13 (ENSG00000110700) | gene RPS14 (ENSG00000164587) | gene RPS15 (ENSG00000115268) | gene RPS15A (ENSG00000134419) | gene RPS16 (ENSG00000105193) | gene RPS18 (ENSG00000231500) | gene RPS19 (ENSG00000105372) | gene RPS20 (ENSG00000008988) | gene RPS21 (ENSG00000171858) | gene RPS23 (ENSG00000186468) | gene RPS24 (ENSG00000138326) | gene RPS25 (ENSG00000118181) | gene RPS26 (ENSG00000197728) | gene RPS27 (ENSG00000177954) | gene RPS27A (ENSG00000143947) | gene RPS28 (ENSG00000233927) | gene RPS29 (ENSG00000213741) | gene RPSA (ENSG00000168028) | gene RTN2 (ENSG00000125744) | gene SEMA3A (ENSG00000075213) | gene SGIP1 (ENSG00000118473) | gene SH3BGR (ENSG00000185437) | gene SLC2A12 (ENSG00000146411) | gene SLC7A7 (ENSG00000155465) | gene SLC25A6 (ENSG00000169100) | gene SMO (ENSG00000128602) | gene SNRPA (ENSG00000077312) | gene SOX6 (ENSG00000110693) | gene SPATA6 (ENSG00000132122) | gene STS (ENSG00000101846) | gene SYNE2 (ENSG00000054654) | gene TDG (ENSG00000139372) | gene TEN1 (ENSG00000257949) | gene TET2 (ENSG00000168769) | gene TET3 (ENSG00000187605) | gene TGFBI (ENSG00000120708) | gene THBS3 (ENSG00000169231) | gene THG1L (ENSG00000113272) | gene TIMM9 (ENSG00000100575) | gene TKT (ENSG00000163931) | gene TOMM7 (ENSG00000196683) | gene TOP2A (ENSG00000131747) | gene TPGS1 (ENSG00000141933) | gene TPM2 (ENSG00000198467) | gene TPT1 (ENSG00000133112) | gene TRERF1 (ENSG00000124496) | gene UBA52 (ENSG00000221983) | gene UQCRB (ENSG00000156467) | gene UTRN (ENSG00000152818) | gene VIM (ENSG00000026025) | gene ZNF581 (ENSG00000171425)
